Assay results as given in patent US12479840B2, “HMG-CoA reductase degradation inducing compound” (Uppthera, priority 2020, dated 2025).

Biological target: T1, HMG-CoA reductase (Homo sapiens, UniProt P04035)
T1 construct: endogenous in cells; host or cells: HepG2 (Korea Cell Line Bank)
T1 sequence (P04035 1-888): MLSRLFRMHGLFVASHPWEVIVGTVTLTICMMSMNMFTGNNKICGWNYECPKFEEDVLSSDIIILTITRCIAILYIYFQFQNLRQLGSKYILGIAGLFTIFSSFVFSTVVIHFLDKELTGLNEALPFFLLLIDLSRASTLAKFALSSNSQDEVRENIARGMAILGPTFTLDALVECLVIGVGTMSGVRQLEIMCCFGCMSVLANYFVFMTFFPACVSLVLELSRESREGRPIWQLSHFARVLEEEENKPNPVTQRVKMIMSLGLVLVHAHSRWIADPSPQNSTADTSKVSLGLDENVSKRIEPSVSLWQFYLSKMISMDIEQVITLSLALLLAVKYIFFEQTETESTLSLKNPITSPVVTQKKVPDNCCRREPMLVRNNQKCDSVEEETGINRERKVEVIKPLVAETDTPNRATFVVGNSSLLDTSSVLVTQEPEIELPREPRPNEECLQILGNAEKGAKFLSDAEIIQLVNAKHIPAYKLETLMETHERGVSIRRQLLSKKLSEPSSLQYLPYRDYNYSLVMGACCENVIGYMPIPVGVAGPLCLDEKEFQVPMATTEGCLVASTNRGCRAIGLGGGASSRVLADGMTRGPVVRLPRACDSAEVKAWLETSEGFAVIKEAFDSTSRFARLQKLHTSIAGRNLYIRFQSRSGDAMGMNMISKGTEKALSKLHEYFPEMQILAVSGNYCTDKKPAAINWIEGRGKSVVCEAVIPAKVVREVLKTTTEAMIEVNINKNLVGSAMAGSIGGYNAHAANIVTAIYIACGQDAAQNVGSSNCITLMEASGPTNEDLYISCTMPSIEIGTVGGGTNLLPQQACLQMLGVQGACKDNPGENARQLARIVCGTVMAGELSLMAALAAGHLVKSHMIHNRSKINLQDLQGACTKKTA
Assay: HMG-CoA reductase (HMGCR) degradation in HepG2 cells by western blotting
Type: cell-based
Conditions: treated for 18 hours, ratio of HMG-CoA reductase to GAPDH, read-out: DC50
Procedure, shortened: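 Western blot read-out: HMGCR protein probed (1:500, 16 hours at 4° C) alongside GAPDH loading control on 15 μg BCA-normalised RIPA lysates. Lysates came from HepG2 cells (P105–P110) exposed for 18 hours to a 10-point, three-fold series starting at 3 μM.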

| Structure (SMILES) | DC50 [nM] |
| --- | --- |
| C[C@H]1C=C2C=C[C@H](C)[C@H](CC[C@@H](O)C[C@@H](O)CC(=O)O)[C@H]2[C@@H](OC(=O)NCCOCCOCCOCCNc2cccc3c2C(=O)N(C2CCC(=O)NC2=O)C3=O)C1 (stereo partly drawn) [Compound 107, (3R,5R)-7-((1S,2S,6R,8S,8aR)-8-(((2-(2-(2-(2-((2-(2,6-dioxopiperidin-3-yl)-1,3-dioxoisoindolin-4-yl)amino)ethoxy)ethoxy)ethoxy)ethyl)carbamoyl)oxy)-2,6-dimethyl-1,2,6,7,8,8a-hexahydronaphthalen-1-yl)-3,5-dihydroxyheptanoic acid] | < 50 |
| C[C@H]1C=C2C=C[C@H](C)[C@H](CC[C@@H]3C[C@@H](O)CC(=O)O3)[C@H]2[C@@H](OC(=O)NCc2cccc(CNC(=O)COc3cccc4c3C(=O)N(C3CCC(=O)NC3=O)C4=O)c2)C1 (stereo partly drawn) [Compound 79, (1S,3R,7S,8S,8aR)-8-(2-((2R,4R)-4-hydroxy-6-oxotetrahydro-2H-pyran-2-yl)ethyl)-3,7-dimethyl-1,2,3,7,8,8a-hexahydronaphthalen-1-yl (3-((2-((2-(2,6-dioxopiperidin-3-yl)-1,3-dioxoisoindolin-4-yl)oxy)acetamido)methyl)benzyl)carbamate] | < 50 |
| C[C@H]1C=C2C=C[C@H](C)[C@H](CC[C@@H]3C[C@@H](O)CC(=O)O3)[C@H]2[C@@H](OC(=O)NCCc2ccc(CC(=O)Nc3cccc4c3C(=O)N(C3CCC(=O)NC3=O)C4=O)cc2)C1 (stereo partly drawn) [Compound 147, (1S,3R,7S,8S,8aR)-8-(2-((2R,4R)-4-hydroxy-6-oxotetrahydro-2H-pyran-2-yl)ethyl)-3,7-dimethyl-1,2,3,7,8,8a-hexahydronaphthalen-1-yl (4-(2-((2-(2,6-dioxopiperidin-3-yl)-1,3-dioxoisoindolin-4-yl)amino)-2-oxoethyl)phenethyl)carbamate] | < 50 |
| C[C@H]1C=C2C=C[C@H](C)[C@H](CC[C@@H]3C[C@@H](O[Si](C)(C)C(C)(C)C)CC(=O)O3)[C@H]2[C@@H](OC(=O)NCCCCN2CCC(Nc3cccc4c3C(=O)N(C3CCC(=O)NC3=O)C4=O)CC2)C1 (stereo partly drawn) [Compound 72, (1S,3R,7S,8S,8aR)-8-(2-((2R,4R)-4-((tert-butyldimethylsilyl)oxy)-6-oxotetrahydro-2H-pyran-2-yl)ethyl)-3,7-dimethyl-1,2,3,7,8,8a-hexahydronaphthalen-1-yl (4-(4-((2-(2,6-dioxopiperidin-3-yl)-1,3-dioxoisoindolin-4-yl)amino)piperidin-1-yl)butyl)carbamate] | < 50 |
| C[C@H]1C=C2C=C[C@H](C)[C@H](CC[C@@H]3C[C@@H](O)CC(=O)O3)[C@H]2[C@@H](OC(=O)NCCCOCCCCNc2cccc3c2C(=O)N(C2CCC(=O)NC2=O)C3=O)C1 (stereo partly drawn) [Compound 121, (1S,3R,7S,8S,8aR)-8-(2-((2R,4R)-4-hydroxy-6-oxotetrahydro-2H-pyran-2-yl)ethyl)-3,7-dimethyl-1,2,3,7,8,8a-hexahydronaphthalen-1-yl (3-(4-((2-(2,6-dioxopiperidin-3-yl)-1,3-dioxoisoindolin-4-yl)amino)butoxy)propyl)carbamate] | < 50 |
| C[C@H]1C=C2C=C[C@H](C)[C@H](CC[C@@H]3C[C@@H](O)CC(=O)O3)[C@H]2[C@@H](OC(=O)NCCCCCCCC(=O)Nc2cccc3c2C(=O)N(C2CCC(=O)NC2=O)C3=O)C1 (stereo partly drawn) [Compound 77, (1S,3R,7S,8S,8aR)-8-(2-((2R,4R)-4-hydroxy-6-oxotetrahydro-2H-pyran-2-yl)ethyl)-3,7-dimethyl-1,2,3,7,8,8a-hexahydronaphthalen-1-yl (8-((2-(2,6-dioxopiperidin-3-yl)-1,3-dioxoisoindolin-4-yl)amino)-8-oxooctyl)carbamate] | < 50 |
| C[C@H]1C=C2C=C[C@H](C)[C@H](CC[C@@H]3C[C@@H](O)CC(=O)O3)[C@H]2[C@@H](OC(=O)NCCOCCOCCOCCOCCOCCNc2cccc3c2C(=O)N(C2CCC(=O)NC2=O)C3=O)C1 (stereo partly drawn) [Compound 43, (1S,3R,7S,8S,8aR)-8-(2-((2R,4R)-4-hydroxy-6-oxotetrahydro-2H-pyran-2-yl)ethyl)-3,7-dimethyl-1,2,3,7,8,8a-hexahydronaphthalen-1-yl (17-((2-(2,6-dioxopiperidin-3-yl)-1,3-dioxoisoindolin-4-yl)amino)-3,6,9,12,15-pentaoxaheptadecyl)carbamate] | < 50 |
| C[C@H]1C=C2C=C[C@H](C)[C@H](CC[C@@H]3C[C@@H](O[Si](C)(C)C(C)(C)C)CC(=O)O3)[C@H]2[C@@H](OC(=O)NCCOCCOCCCNc2cccc3c2C(=O)N(C2CCC(=O)NC2=O)C3=O)C1 (stereo partly drawn) [Compound 92, (1S,3R,7S,8S,8aR)-8-(2-((2R,4R)-4-((tert-butyldimethylsilyl)oxy)-6-oxotetrahydro-2H-pyran-2-yl)ethyl)-3,7-dimethyl-1,2,3,7,8,8a-hexahydronaphthalen-1-yl (2-(2-(3-((2-(2,6-dioxopiperidin-3-yl)-1,3-dioxoisoindolin-4-yl)amino)propoxy)ethoxy)ethyl)carbamate] | < 50 |
| C[C@H]1C=C2C=C[C@H](C)[C@H](CC[C@@H]3C[C@@H](O)CC(=O)O3)[C@H]2[C@@H](OC(=O)NCCCCN2CCC(Nc3cccc4c3C(=O)N(C3CCC(=O)NC3=O)C4=O)CC2)C1 (stereo partly drawn) [Compound 73, (1S,3R,7S,8S,8aR)-8-(2-((2R,4R)-4-hydroxy-6-oxotetrahydro-2H-pyran-2-yl)ethyl)-3,7-dimethyl-1,2,3,7,8,8a-hexahydronaphthalen-1-yl (4-(4-((2-(2,6-dioxopiperidin-3-yl)-1,3-dioxoisoindolin-4-yl)amino)piperidin-1-yl)butyl)carbamate] | < 50 |
| C[C@H]1C=C2C=C[C@H](C)[C@H](CC[C@@H]3C[C@@H](O[Si](C)(C)C(C)(C)C)CC(=O)O3)[C@H]2[C@@H](OC(=O)NCCCCOCCCCNc2cccc3c2C(=O)N(C2CCC(=O)NC2=O)C3=O)C1 (stereo partly drawn) [Compound 88, (1S,3R,7S,8S,8aR)-8-(2-((2R,4R)-4-((tert-butyldimethylsilyl)oxy)-6-oxotetrahydro-2H-pyran-2-yl)ethyl)-3,7-dimethyl-1,2,3,7,8,8a-hexahydronaphthalen-1-yl (4-(4-((2-(2,6-dioxopiperidin-3-yl)-1,3-dioxoisoindolin-4-yl)amino)butoxy)butyl)carbamate] | < 50 |
| CN[C@@H](C)C(=O)N[C@H](C(=O)N1CCC[C@H]1c1nc(C(=O)c2cccc(OCCOCCOCCOCCOCCNC(=O)O[C@H]3C[C@@H](C)C=C4C=C[C@H](C)[C@H](CC[C@@H]5C[C@@H](O[Si](C)(C)C(C)(C)C)CC(=O)O5)[C@H]43)c2)cs1)C1CCCCC1 [Compound 38, (1S,3R,7S,8S,8aR)-8-(2-((2R,4R)-4-((tert-butyldimethylsilyl)oxy)-6-oxotetrahydro-2H-pyran-2-yl)ethyl)-3,7-dimethyl-1,2,3,7,8,8a-hexahydronaphthalen-1-yl (14-(3-(2-((S)-1-((S)-2-cyclohexyl-2-((S)-2-(methylamino)propanamido)acetyl)pyrrolidin-2-yl)thiazole-4-carbonyl)phenoxy)-3,6,9,12-tetraoxatetradecyl)carbamate] | < 50 |
